Measurements reported in ChEMBL document CHEMBL4184114, “Discovery of selective, orally bioavailable inhibitor of mouse chitotriosidase” (Bioorg Med Chem Lett, 2018).

Assays:
[1] = target: Acidic mammalian chitinase (Mus musculus, UniProt Q91XA9); experiment: Inhibition of mouse AMCase using 4-methylumbelliferyl beta-D-N,N' diacetylchitobioside hydrate as substrate measured after 60 mins by fluorometric method
Chitotriosidase-1 = Chitotriosidase-1 (Mus musculus, UniProt Q9D7Q1); experiment: Inhibition of mouse CHIT1 using 4-methylumbelliferyl beta-D-N,N',N'' triacetylchitotrioside as substrate measured after 60 mins by fluorometric method
Chain of Chitotriosidase-1 (Q9D7Q1 whole entry): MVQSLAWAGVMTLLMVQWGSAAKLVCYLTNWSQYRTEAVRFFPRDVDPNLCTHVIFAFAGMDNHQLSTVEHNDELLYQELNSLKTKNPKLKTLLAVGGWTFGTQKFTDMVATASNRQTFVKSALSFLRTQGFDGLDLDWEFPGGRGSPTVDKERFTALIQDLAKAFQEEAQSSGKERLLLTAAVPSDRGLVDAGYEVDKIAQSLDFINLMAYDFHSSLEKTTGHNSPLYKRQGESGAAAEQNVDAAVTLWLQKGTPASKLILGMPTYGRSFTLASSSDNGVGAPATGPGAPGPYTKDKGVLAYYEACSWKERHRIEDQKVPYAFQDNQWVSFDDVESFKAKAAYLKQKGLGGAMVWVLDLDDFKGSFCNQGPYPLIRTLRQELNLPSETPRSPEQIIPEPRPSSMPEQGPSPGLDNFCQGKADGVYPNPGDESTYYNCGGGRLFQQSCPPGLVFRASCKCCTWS

[2] = Cmax in BALB/c mouse at 3 mg/kg, iv administered as bolus dose by LC-MS/MS analysis; assay type: ADME, organism-based; parameters: dose 3 mg/kg, route intravenous; conditions: in vivo
[3] = Volume of distribution at steady state in BALB/c mouse at 3 mg/kg, iv administered as bolus dose by LC-MS/MS analysis; assay type: ADME, organism-based; conditions: in vivo, read-out: Vdss
[4] = Clearance in BALB/c mouse at 3 mg/kg, iv administered as bolus dose by LC-MS/MS analysis; assay type: ADME, organism-based; conditions: in vivo
[5] = Oral bioavailability in BALB/c mouse at 10 mg/kg by LC-MS/MS analysis; assay type: ADME, organism-based; conditions: in vivo
[6] = AUC (0 to infinity) in BALB/c mouse at 10 mg/kg, po by LC-MS/MS analysis; assay type: ADME, organism-based; parameters: dose 10 mg/kg, time infinity, route oral; conditions: in vivo
[7] = Tmax in BALB/c mouse at 10 mg/kg, po by LC-MS/MS analysis; assay type: ADME, organism-based; conditions: in vivo
[8] = AUC (0 to infinity) in BALB/c mouse at 3 mg/kg, iv administered as bolus dose by LC-MS/MS analysis; assay type: ADME, organism-based; parameters: dose 3 mg/kg, route intravenous, time infinity; conditions: in vivo
[9] = Half-life in BALB/c mouse at 10 mg/kg, po by LC-MS/MS analysis; assay type: ADME, organism-based; conditions: in vivo
[10] = Cmax in BALB/c mouse at 10 mg/kg, po by LC-MS/MS analysis; assay type: ADME, organism-based; parameters: dose 10 mg/kg, route oral; conditions: in vivo
[11] = Half-life in BALB/c mouse at 3 mg/kg, iv administered as bolus dose by LC-MS/MS analysis; assay type: ADME, organism-based; conditions: in vivo

Chain of Acidic mammalian chitinase (Q91XA9 whole entry): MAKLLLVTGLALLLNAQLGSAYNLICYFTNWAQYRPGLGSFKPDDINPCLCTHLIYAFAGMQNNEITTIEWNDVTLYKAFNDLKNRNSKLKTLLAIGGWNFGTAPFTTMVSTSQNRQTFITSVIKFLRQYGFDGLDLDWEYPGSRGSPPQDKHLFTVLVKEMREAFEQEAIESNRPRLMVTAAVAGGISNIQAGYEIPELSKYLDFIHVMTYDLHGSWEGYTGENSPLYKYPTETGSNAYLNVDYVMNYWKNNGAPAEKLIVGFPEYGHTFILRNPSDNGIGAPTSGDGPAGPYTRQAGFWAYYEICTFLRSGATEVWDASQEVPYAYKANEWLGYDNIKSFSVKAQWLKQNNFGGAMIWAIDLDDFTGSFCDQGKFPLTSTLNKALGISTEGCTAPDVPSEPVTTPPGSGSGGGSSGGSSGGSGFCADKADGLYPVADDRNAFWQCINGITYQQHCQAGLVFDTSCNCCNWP

SMILES	IC50 [1] [nM]	IC50 (Chitotriosidase-1) [nM]	other results
Nc1nc(N2CCC(N3C[C@@H]4C[C@H](O)CN4C[C@@H]3Cc3ccc(Cl)cc3)CC2)n[nH]1	130	29	
C[C@H]1CN(C2CCN(c3n[nH]c(N)n3)CC2)[C@@H](Cc2ccc(Cl)cc2)CN1Cc1ccc(Cl)cc1	1400	495	
C[C@H]1CN(C2CCN(c3nnc(N)[nH]3)CC2)[C@@H](Cc2ccc(Cl)cc2)CN1C	1220	186	
CC(=O)N1C[C@H](Cc2ccc(Cl)cc2)N(C2CCN(c3nnc(N)[nH]3)CC2)C[C@@H]1C	6020	4380	
CC(C)CN1C[C@H](Cc2ccc(Cl)cc2)N(C2CCN(c3n[nH]c(N)n3)CC2)C[C@@H]1C	4170	29	Cmax [2]: 1480 ng/mL; Vd [3]: 4.6 L/kg; clearance [4]: 28.5 mL/min/kg; bioavailability [5]: 61.2%; AUC(0-inf) [6]: 3570 ng·h/mL; Tmax [7]: 30 min; AUC(0-inf) [8]: 1750 ng·h/mL; half-life [9]: 170 min; Cmax [10]: 840 ng/mL; half-life [11]: 172 min
Nc1nc(N2CCC(N3C[C@@H]4CCCCN4C[C@@H]3Cc3ccc(Cl)cc3)CC2)n[nH]1	525	175	
CN1CCN(C2CCN(c3nnc(N)[nH]3)CC2)[C@@H](Cc2ccc(Cl)cc2)C1	7600	1590	
C[C@H]1CN(C2CCN(c3n[nH]c(N)n3)CC2)[C@@H](Cc2ccc(Cl)cc2)CN1CC(=O)N(C)C	751	24	
CN1C[C@H](Cc2ccc(Cl)cc2)N(C2CCN(c3nnc(N)[nH]3)CC2)C[C@@H]1CO	1250	175	
C[C@H]1CN(C2CCN(c3nnc(N)[nH]3)CC2)[C@@H](Cc2ccc(Cl)cc2)CN1S(C)(=O)=O	3720	1010	
COC(=O)N1C[C@H](Cc2ccc(Cl)cc2)N(C2CCN(c3nnc(N)[nH]3)CC2)C[C@@H]1C	3750	461	
CC(C)C[C@H]1CN(C2CCN(c3n[nH]c(N)n3)CC2)[C@@H](Cc2ccc(Cl)cc2)CN1	2910	135	
CC(C)C[C@H]1CN(C2CCN(c3nnc(N)[nH]3)CC2)[C@@H](Cc2ccc(Cl)cc2)CN1C	936	95	
Nc1nc(N2CCC(N3C[C@@H]4C[C@@H](O)CN4C[C@@H]3Cc3ccc(Cl)cc3)CC2)n[nH]1	136	48	
CN1C[C@H](Cc2ccc(Cl)cc2)N(C2CCN(c3nnc(N)[nH]3)CC2)C[C@@H]1CC1CCCCC1	640	128	
CC(C)C[C@H]1CN(C2CCN(c3n[nH]c(N)n3)CC2)[C@@H](Cc2ccc(Cl)cc2)CN1CC(C)C	5700	41	
COC(=O)CN1C[C@H](Cc2ccc(Cl)cc2)N(C2CCN(c3n[nH]c(N)n3)CC2)C[C@@H]1C	231	29	
C[C@H]1CN(C2CCN(c3nnc(N)[nH]3)CC2)[C@@H](Cc2ccc(Cl)cc2)CN1CC(=O)O	527	53	
Nc1nnc(N2CCC(N3C[C@@H]4CCCN4C[C@@H]3Cc3ccc(Cl)cc3)CC2)[nH]1	697	161	
CN1C[C@H](Cc2ccc(Cl)cc2)N(C2CCN(c3nnc(N)[nH]3)CC2)C[C@@H]1Cc1ccc(Cl)cc1	518	103	
